Here are results for 20 compounds from ChEMBL document CHEMBL4043111, “Asymmetric synthesis and evaluation of epoxy-α-acyloxycarboxamides as selective inhibitors of cathepsin L” (Bioorg Med Chem, 2017).

pIC50, pKi: −log10 of the molar value. Several values for one entry are separate records, joined by “and”; a condition that tells them apart may be missing. Equal entries are not always repeated. Activity calls are given as the source filed them. The calls are words filed in the database; no cut-off is given here.

In assay [1] the target is T1, Procathepsin L (Homo sapiens, UniProt P07711). The assay can be described thus: Inhibition of human liver cathepsin L at 25 uM peincubated for 5 mins followed by Z-FR-MCA addition by spectrofluorimetric method relative to control.
Target sequence in this assay (P07711 114-333 limits assumed): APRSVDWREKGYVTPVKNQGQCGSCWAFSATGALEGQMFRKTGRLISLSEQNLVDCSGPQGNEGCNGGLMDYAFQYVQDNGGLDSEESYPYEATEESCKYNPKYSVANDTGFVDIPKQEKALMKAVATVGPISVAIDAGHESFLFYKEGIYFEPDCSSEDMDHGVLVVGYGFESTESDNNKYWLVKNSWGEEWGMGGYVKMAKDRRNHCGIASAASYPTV
The target of assay [2] is T2, Cathepsin L2 (Homo sapiens) (UniProt O60911).
T2 sequence (whole entry): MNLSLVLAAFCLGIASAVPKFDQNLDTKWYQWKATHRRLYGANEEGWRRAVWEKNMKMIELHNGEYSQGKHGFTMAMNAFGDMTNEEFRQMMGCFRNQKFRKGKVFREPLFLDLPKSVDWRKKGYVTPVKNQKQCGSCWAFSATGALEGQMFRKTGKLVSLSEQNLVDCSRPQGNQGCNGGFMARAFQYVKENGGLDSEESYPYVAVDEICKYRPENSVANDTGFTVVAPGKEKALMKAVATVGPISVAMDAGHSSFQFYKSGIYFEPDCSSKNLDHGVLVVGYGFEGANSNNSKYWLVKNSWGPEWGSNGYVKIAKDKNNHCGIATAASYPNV
The assay can be described thus: Inhibition of cathepsin V (unknown origin) at 25 uM peincubated for 5 mins followed by Z-FR-MCA addition by spectrofluorimetric method relative to control.

Assay [3] has as its target T3, Cathepsin K (Homo sapiens) (UniProt P43235).
T3 sequence (whole entry): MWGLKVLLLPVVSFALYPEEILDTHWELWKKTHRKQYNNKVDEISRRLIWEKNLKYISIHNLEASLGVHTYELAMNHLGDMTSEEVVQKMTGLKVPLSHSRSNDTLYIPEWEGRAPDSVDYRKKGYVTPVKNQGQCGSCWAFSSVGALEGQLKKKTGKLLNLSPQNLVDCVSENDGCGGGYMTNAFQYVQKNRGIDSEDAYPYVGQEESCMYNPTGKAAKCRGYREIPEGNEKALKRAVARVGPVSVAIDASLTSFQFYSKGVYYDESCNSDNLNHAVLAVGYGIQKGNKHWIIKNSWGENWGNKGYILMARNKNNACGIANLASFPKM
The assay can be described thus: Inhibition of cathepsin K (unknown origin) at 25 uM peincubated for 5 mins followed by Z-FR-MCA addition by spectrofluorimetric method relative to control.

For assay [4], the target named is T1, Procathepsin L. The assay can be described thus: Reversible inhibition of human liver cathepsin L peincubated for 30 mins followed by addition of 7 uM of substrate Z-FR-MCA measured after 10 mins by spectrofluorimetric method.
Target sequence in this assay (P07711 whole entry): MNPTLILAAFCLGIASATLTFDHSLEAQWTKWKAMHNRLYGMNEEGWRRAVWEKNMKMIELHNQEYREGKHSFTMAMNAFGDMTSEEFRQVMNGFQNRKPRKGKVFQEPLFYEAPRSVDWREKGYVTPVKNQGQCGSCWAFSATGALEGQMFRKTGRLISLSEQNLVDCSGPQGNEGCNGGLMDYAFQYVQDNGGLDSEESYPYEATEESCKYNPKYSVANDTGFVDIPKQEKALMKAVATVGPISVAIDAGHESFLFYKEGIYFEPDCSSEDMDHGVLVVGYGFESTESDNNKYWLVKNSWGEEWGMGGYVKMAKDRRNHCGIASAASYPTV
The target of assay [5] is T1, Procathepsin L. In words: Reversible inhibition of human liver cathepsin L peincubated for 30 mins followed by addition of 5.5 uM of substrate Z-FR-MCA measured after 10 mins by spectrofluorimetric method.
Target sequence in this assay (P07711 whole entry): as above
Assay [6] addresses T1, Procathepsin L. In words: Reversible inhibition of human liver cathepsin L peincubated for 30 mins followed by addition of 4 uM of substrate Z-FR-MCA measured after 10 mins by spectrofluorimetric method.
Target sequence in this assay (P07711 whole entry): as above
The target of assay [7] is T1, Procathepsin L. In words: Reversible inhibition of human liver cathepsin L peincubated for 30 mins followed by addition of 4.5 uM of substrate Z-FR-MCA measured after 10 mins by spectrofluorimetric method.
Target sequence in this assay (P07711 whole entry): as above
For assay [8], the target named is T1, Procathepsin L. The assay can be described thus: Reversible inhibition of human liver cathepsin L peincubated for 30 mins followed by addition of 3.5 uM of substrate Z-FR-MCA measured after 10 mins by spectrofluorimetric method.
Target sequence in this assay (P07711 whole entry): as above
Assay [9] deals with T1, Procathepsin L. The assay can be described thus: Reversible inhibition of human liver cathepsin L peincubated for 30 mins followed by addition of 9 uM of substrate Z-FR-MCA measured after 10 mins by spectrofluorimetric method.
Target sequence in this assay (P07711 whole entry): as above
Assay [10] concerns the target T1, Procathepsin L. The assay can be described thus: Reversible inhibition of human liver cathepsin L peincubated for 30 mins followed by addition of 8 uM of substrate Z-FR-MCA measured after 10 mins by spectrofluorimetric method.
For assay [11], the target named is T1, Procathepsin L. In words: Reversible inhibition of human liver cathepsin L peincubated for 30 mins followed by addition of 6 uM of substrate Z-FR-MCA measured after 10 mins by spectrofluorimetric method.
In assay [12] the target is T1, Procathepsin L. The assay can be described thus: Reversible inhibition of human liver cathepsin L peincubated for 30 mins followed by addition of 5 uM of substrate Z-FR-MCA measured after 10 mins by spectrofluorimetric method.
Assay [13] has as its target T1, Procathepsin L. In words: Uncompetitive inhibition of cathepsin L (unknown origin) peincubated for 30 mins followed by substrate Z-FR-MCA addition measured after 10 mins by spectrofluorimetric method.
A further assay has as its target T4, Cathepsin K (Homo sapiens, UniProt P43235).
T4 sequence (P43235 whole entry): T3 sequence (whole entry)
In words: Inhibition of cathepsin K (unknown origin) peincubated for 5 mins followed by Z-FR-MCA addition by spectrofluorimetric method.

Assay [14] addresses T1, Procathepsin L. In words: Inhibition of human liver cathepsin L peincubated for 5 mins followed by Z-FR-MCA addition by spectrofluorimetric method.

In the case of `CCCCCCC[C@H]1O[C@@H]1C(OC(=O)CC(C)C)C(=O)NCCCC` (mixture of isomers), the inhibition result at Procathepsin L [1] was “inactive”.
With `CC(C)(C)NC(=O)C(OC(=O)c1ccccc1)[C@H]1O[C@@H]1c1ccccc1[N+](=O)[O-]` (mixture of isomers), the figures for the inhibition (in assay [2]; against Procathepsin L [1]; in assay [3]) were 21.3%, 10.5% and 21.5%, respectively.
Take `CCCCCCC[C@H]1O[C@@H]1C(OC(=O)c1ccc(I)cc1)C(=O)NCCCC` (mixture of isomers): the inhibition at Procathepsin L [1] came to 74%.
As to `CCCCCCC[C@H]1O[C@@H]1C(OC(=O)c1ccc(I)cc1)C(=O)NC1CCCCC1` (mixture of isomers), the pIC50 was 5.14 on Procathepsin L [4]; 5.29 at Procathepsin L [5]; 4.94 on Procathepsin L [6]; 4.95 against Procathepsin L [7]; 4.77 at Procathepsin L [8]; 5.22 at Procathepsin L [9]. Also, the pIC50 is 5.24 at Procathepsin L [10], 5.28 against Procathepsin L [11], 5.01 against Procathepsin L [12] and 5.24 against Cathepsin K. In addition, the inhibition came out at 30.8% in assay [2], 98.5% on Procathepsin L [1] and 78% in assay [3]. The pKi at Procathepsin L [13] is 5.88.
Turning to `CCCCCCC[C@H]1O[C@@H]1C(OC(=O)c1ccccc1)C(=O)NC(C)(C)C` (mixture of isomers), the figures for the inhibition (in assay [2]; against Procathepsin L [1]; in assay [3]) were 43.5%, 86.4% and 69.1%, respectively. Further, on Cathepsin K, the pIC50 is 4.90.
Regarding `CCCC(=O)OC(C(=O)NCc1ccccc1)[C@H]1O[C@@H]1c1ccccc1[N+](=O)[O-]` (mixture of isomers), the results for the inhibition (in [2]; at Procathepsin L [1]; in assay [3]) were 3.9%, 2.9% and 0%, respectively.
In the case of `CCCCCCCCNC(=O)C(OC(=O)CCCCCBr)[C@H]1O[C@@H]1c1ccccc1[N+](=O)[O-]` (mixture of isomers), the inhibition on Procathepsin L [1] came out at 84%. The pIC50 on Procathepsin L [14] was 5.07.
For the compound `CCCCCCC[C@H]1O[C@@H]1C(OC(=O)CC(C)C)C(=O)NCc1ccccc1` (mixture of isomers), the inhibition on Procathepsin L [1] amounted to 43%.
`CCCCCCC[C@H]1O[C@@H]1C(OC(=O)c1ccc(I)cc1)C(=O)NC(C)(C)C` (mixture of isomers) came in with an inhibition against Procathepsin L [1] of 65%.
The same measure, in the same setting: the same measure for `CCCCCCC[C@H]1O[C@@H]1C(OC(=O)c1ccccc1)C(=O)NCC(=O)OC` (mixture of isomers): “inactive”.
`CCCCCCC[C@H]1O[C@@H]1C(OC(=O)CCCCCBr)C(=O)NCCCC` (mixture of isomers) came in with an inhibition at Procathepsin L [1] of 69%.
Regarding `CCCCCCC[C@H]1O[C@@H]1C(OC(=O)C1CCCCC1)C(=O)NC(C)(C)C` (mixture of isomers), the inhibition result on Procathepsin L [1] was “inactive”.
Same read-out and setting: the same measure for `CCCCCCC[C@H]1O[C@@H]1C(OC(=O)CCCCCBr)C(=O)NC(C)(C)C` (mixture of isomers): “inactive”.
As to `CCCCCCCC1OC1C(OC(=O)c1ccc(I)cc1)C(=O)NC1CCCCC1` (mixture of isomers; form 1), the negative logarithm of the IC50 (pIC50) at Procathepsin L [14] was 5.95.
As to `CCCCCCC[C@H]1O[C@@H]1C(OC(=O)[C@H]1CCCN1C(=O)OC(C)(C)C)C(=O)NC(C)(C)C` (mixture of isomers), the inhibition is 0% in [2], 67.3% at Procathepsin L [1] and 38.7% in [3].
On Procathepsin L [14], `CCCCCCCC1OC1C(OC(=O)c1ccc(I)cc1)C(=O)NC1CCCCC1` (mixture of isomers; form 2) had a negative-log IC50 (pIC50) of 5.69.
Turning to `CCCCCCCC1OC1C(OC(=O)c1ccc(I)cc1)C(=O)NC1CCCCC1` (stereo not given), the negative-log IC50 (pIC50) against Procathepsin L [14] was 5.66 and 5.37.
On Procathepsin L [1], `CCCCCCC[C@H]1O[C@@H]1C(OC(=O)C1CCCCC1)C(=O)NCCCC` (mixture of isomers) displayed an inhibition of 70%.
Same read-out and setting: the same measure for `CCCCCCC[C@H]1O[C@@H]1C(OC(=O)CCCCCBr)C(=O)NC1CCCCC1` (mixture of isomers): 69%.
With `CCCCCCC[C@H]1O[C@@H]1C(OC(=O)[C@@H]1CCCN1C(=O)OC(C)(C)C)C(=O)NC(C)(C)C` (single isomer, unassigned), the inhibition in [2] worked out at 0%; against Procathepsin L [1], 52.6%; in assay [3], 39.3%.
